Measurements taken from patent US11229203B2, “Method of formulation of combined microbe and agricultural chemistry, microbe-derivative composition, and use of same” (priority 2017, dated 2022).

Legend:
seeds = experiment: Field trials and large-scale laboratory tests of seed treatments; type: in vivo; details: seeds treated with formulations containing only 0.7 μl/seed
From the text: Applicants expected that this compound as well as other microbial metabolites would have transitory but beneficial effects on plant growth, resistance to stresses and other advantages. However, as field trials were developed and conducted on seed treatments with this compound in field and large-scale laboratory tests, the effects were discovered to be neither transitory nor small.

plant = experiment: Plant growth and productivity with 1-octen-3-ol in aerial solution or as seed treatment; type: in vivo; details: very low concentrations in aerial solution; duplicated by seed treatments at low concentrations
From the text: Applicants have begun evaluating the triggering molecules released in the rhizosphere since applicants expected that they might have both commercial and basic scientific uses. The expectation was they would have beneficial effects upon plants.

With `C=CC(O)CCCCC` (centres unmarked) [Trichoderma 1-octen-3-ol, 1-octen-3-ol] as the compound, how does the “Duration of effects after seed treatment” value (seeds) read?
Its value is “season long effects were observed”.

And the “Effect on plant growth and productivity” value (plant)?
The value was “enhances plant growth and productivity”.
